# Earlier results, collected in PMC3907537, “Evaluation of the Endothelin Receptor Antagonists Ambrisentan, Bosentan, Macitentan, and Sitaxsentan as Hepatobiliary Transporter Inhibitors and Substrates in Sandwich-Cultured Human Hepatocytes” (PLoS ONE, 2014).
# Several values for one entry are separate records, joined by “and”; a condition that tells them apart may be missing. Equal values may be shown once. Read-outs that look alike come from different tables or passages of the source.
# Assays:
# Pgp = target: T1, Pgp (Homo sapiens, UniProt P08183); set-up: method as in earlier work; conditions: data previously reported, similar conditions ref 35; cited from earlier work
# T1 construct: host or cells: MDCKII
# BSEP [1] = target: T2, BSEP (Homo sapiens, UniProt O95342); set-up: method as in earlier work; conditions: data previously reported, same assay conditions ref 35; cited from earlier work
# T2 construct: purchased Solvo Biotechnology, Budaors, Hungary; host or cells: Sf9 insect cells (membrane vesicles)
# MRP2 = target: T3, MRP2 (Homo sapiens, UniProt Q92887); set-up: method as in earlier work; conditions: data previously reported ref 35; cited from earlier work
# T3 construct: purchased Solvo Biotechnology, Budaors, Hungary; host or cells: Sf9 insect cells (membrane vesicles)
# BCRP = target: T4, BCRP (Homo sapiens, UniProt Q9UNQ0); set-up: method as in earlier work; conditions: data previously reported, similar conditions ref 35; cited from earlier work
# T4 construct: host or cells: MDCKII
# T4 sequence (Q9UNQ0 1-655): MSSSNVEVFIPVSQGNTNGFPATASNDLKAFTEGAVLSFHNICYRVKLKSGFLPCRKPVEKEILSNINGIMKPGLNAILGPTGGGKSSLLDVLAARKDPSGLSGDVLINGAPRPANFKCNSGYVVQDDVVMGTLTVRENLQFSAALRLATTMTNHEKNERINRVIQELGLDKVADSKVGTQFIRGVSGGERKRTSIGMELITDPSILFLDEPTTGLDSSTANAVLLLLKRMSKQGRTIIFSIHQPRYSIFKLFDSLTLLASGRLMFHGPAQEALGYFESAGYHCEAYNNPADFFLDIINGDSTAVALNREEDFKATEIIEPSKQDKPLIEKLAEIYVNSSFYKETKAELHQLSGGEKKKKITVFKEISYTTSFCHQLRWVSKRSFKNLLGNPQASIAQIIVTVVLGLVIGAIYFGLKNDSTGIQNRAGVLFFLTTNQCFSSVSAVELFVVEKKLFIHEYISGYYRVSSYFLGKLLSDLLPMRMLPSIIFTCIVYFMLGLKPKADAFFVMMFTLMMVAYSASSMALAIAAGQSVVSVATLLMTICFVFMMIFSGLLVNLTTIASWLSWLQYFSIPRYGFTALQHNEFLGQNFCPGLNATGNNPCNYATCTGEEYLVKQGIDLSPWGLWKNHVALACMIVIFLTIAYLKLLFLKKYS
# human OATP1B1 = conditions: cited from earlier work
# murine Pgp = system: murine Pgp; set-up: method as in PMID 23353592; conditions: cited from earlier work
# canine BCRP = system: canine BCRP; set-up: method as in PMID 23353592; conditions: cited from earlier work
# [2] = cited from earlier work
# human Pgp = system: human Pgp; set-up: method as in PMID 22348175; conditions: at doses up to 50 µM, Kim et al. ref 46; cited from earlier work
# BSEP [3] = system: BSEP; set-up: method as in PMID 11309550, PMID 20829430, PMID 17061295, PMID 23956101; conditions: read-out: BSEP inhibition values previously reported (IC50); cited from earlier work
# T3 sequence (Q92887 whole entry): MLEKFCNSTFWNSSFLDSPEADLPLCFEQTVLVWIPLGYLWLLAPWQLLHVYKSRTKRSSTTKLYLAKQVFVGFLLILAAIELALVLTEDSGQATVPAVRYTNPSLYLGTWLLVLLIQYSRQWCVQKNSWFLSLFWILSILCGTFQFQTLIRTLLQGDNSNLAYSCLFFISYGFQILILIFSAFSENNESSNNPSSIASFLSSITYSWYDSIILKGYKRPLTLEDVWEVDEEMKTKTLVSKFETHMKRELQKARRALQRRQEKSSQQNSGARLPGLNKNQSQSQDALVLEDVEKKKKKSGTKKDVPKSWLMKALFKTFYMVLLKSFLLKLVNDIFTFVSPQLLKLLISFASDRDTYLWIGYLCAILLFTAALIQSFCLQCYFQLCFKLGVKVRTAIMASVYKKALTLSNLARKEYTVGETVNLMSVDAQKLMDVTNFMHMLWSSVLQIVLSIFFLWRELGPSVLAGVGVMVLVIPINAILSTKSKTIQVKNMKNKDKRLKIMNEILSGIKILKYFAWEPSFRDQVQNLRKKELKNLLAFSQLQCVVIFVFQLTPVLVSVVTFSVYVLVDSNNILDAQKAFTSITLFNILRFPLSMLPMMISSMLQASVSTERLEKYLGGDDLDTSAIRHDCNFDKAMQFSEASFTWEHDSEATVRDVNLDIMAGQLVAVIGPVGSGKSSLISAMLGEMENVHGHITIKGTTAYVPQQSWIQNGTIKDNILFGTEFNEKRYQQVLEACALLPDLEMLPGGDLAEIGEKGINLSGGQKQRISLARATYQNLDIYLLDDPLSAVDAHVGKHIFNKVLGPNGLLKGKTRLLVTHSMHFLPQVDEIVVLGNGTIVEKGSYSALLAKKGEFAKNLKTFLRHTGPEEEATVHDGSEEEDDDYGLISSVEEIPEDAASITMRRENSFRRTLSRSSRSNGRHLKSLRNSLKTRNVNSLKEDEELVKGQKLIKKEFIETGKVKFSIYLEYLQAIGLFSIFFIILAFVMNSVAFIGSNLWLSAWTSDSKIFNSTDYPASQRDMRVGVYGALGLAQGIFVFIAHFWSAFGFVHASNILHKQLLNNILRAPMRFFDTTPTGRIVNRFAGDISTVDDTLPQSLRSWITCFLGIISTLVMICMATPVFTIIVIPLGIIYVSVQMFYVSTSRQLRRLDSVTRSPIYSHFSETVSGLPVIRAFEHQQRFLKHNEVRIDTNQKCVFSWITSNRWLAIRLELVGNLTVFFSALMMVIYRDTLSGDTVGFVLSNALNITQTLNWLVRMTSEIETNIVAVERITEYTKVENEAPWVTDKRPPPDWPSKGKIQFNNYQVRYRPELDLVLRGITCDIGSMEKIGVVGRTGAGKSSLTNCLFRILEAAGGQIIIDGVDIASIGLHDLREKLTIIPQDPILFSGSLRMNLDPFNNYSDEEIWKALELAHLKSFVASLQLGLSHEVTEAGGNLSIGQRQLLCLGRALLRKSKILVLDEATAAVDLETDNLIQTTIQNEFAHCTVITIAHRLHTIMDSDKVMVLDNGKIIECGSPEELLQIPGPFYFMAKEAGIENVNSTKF
# T1 sequence (P08183 whole entry): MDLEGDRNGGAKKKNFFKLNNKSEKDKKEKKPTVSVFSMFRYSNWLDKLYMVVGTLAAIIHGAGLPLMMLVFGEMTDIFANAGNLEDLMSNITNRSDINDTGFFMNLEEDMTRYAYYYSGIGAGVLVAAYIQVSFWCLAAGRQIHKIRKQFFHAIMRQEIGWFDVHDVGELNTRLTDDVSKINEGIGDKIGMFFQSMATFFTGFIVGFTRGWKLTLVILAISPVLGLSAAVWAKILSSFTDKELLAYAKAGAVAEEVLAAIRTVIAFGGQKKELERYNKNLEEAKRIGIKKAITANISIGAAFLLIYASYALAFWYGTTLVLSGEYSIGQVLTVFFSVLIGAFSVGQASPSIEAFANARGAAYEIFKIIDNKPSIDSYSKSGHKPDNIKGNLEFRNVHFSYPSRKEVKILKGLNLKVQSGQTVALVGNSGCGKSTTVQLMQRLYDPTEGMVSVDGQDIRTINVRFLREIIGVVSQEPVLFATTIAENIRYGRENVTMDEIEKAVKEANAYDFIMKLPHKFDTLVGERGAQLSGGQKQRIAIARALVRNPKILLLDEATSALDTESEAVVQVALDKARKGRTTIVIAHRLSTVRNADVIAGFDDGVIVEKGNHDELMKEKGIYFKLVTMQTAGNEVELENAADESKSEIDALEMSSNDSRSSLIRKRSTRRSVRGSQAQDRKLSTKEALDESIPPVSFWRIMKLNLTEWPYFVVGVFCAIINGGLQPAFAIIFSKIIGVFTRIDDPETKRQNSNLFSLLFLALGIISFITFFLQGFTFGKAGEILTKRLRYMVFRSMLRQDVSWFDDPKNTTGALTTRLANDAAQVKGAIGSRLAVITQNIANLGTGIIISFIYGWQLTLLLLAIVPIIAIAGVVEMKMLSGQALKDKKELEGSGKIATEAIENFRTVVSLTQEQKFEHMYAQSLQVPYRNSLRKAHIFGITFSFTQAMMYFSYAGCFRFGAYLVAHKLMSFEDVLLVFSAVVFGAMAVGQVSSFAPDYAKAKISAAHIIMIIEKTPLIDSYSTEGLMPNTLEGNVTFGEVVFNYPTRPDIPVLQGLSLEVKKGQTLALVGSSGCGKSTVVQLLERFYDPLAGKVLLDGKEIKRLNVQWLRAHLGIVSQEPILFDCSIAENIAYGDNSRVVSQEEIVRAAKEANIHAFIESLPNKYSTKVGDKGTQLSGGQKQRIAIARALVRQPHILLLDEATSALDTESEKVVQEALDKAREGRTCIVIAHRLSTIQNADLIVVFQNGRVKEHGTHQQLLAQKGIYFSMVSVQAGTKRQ
# T2 sequence (O95342 whole entry): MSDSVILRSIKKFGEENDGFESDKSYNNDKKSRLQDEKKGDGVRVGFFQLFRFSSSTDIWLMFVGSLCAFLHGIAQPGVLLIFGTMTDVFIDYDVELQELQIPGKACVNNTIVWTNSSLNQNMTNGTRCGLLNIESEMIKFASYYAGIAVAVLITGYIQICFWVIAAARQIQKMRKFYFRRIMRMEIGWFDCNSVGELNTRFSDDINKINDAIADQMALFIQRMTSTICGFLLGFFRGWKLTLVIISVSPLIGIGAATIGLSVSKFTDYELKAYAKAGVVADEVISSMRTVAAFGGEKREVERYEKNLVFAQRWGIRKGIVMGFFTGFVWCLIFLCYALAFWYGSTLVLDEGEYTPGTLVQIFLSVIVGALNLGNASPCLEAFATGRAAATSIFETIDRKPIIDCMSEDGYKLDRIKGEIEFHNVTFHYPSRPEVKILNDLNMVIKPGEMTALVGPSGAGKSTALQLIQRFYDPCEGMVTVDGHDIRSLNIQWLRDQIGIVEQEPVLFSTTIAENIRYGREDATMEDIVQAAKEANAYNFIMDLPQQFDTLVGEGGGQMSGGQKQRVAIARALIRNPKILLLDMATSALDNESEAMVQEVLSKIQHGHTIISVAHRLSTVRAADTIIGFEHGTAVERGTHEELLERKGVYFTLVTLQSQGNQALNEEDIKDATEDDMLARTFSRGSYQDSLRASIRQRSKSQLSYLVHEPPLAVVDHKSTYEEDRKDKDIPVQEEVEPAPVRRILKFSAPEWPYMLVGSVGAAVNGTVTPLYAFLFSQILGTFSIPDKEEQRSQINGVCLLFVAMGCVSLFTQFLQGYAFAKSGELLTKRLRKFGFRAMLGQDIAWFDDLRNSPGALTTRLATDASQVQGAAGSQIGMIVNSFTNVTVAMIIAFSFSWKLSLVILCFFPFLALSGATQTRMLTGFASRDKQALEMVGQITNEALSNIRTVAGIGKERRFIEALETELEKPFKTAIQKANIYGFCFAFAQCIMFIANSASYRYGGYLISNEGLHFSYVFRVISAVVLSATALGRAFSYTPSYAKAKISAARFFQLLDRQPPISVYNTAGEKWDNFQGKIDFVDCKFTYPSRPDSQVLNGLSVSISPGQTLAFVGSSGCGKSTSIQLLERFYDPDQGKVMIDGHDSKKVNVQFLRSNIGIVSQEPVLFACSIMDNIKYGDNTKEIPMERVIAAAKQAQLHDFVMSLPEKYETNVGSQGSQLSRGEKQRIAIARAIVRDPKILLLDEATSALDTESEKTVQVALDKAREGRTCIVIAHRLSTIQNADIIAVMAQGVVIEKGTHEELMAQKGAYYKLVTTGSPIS
smiles,measurement,setting,value
Cc1cc2c(cc1CC(=O)c1sccc1S(=O)(=O)Nc1onc(C)c1Cl)OCO2 [sitaxsentan],IC50,Pgp,> 100 µM
same,IC50,BSEP [1],25 µM
same,IC50,MRP2,> 100 µM
same,IC50,BCRP,> 100 µM
CCCNS(=O)(=O)Nc1ncnc(OCCOc2ncc(Br)cn2)c1-c1ccc(Br)cc1 [macitentan],IC50,"human OATP1B1; Bruderer et al. ref 36, read-out: OATP1B1 IC50",6.3 µM
same,IC50,human OATP1B1; read-out: human OATP1B1 IC50,4.4 µM
same,IC50,murine Pgp,4.4 µM and 4 µM
same,IC50,canine BCRP,13.2 µM and 13 µM
same,elevations >8X ULN on macitentan compared to placebo,[2]; SERAPHIN ref 19,~5 fold
same,incidence of serum aminotransferase elevations >3X ULN,"[2]; SERAPHIN, PAH patients, up to 103.9 weeks, placebo 4.5% ref 17, 19",3.4%
same,incidence of aminotransferase elevations >8X ULN,"[2]; SERAPHIN, placebo 0.4% ref 19",2.1%
same,inhibition of human Pgp,human Pgp,no inhibition
COc1ccccc1Oc1c(NS(=O)(=O)c2ccc(C(C)(C)C)cc2)nc(-c2ncccn2)nc1OCCO [bosentan],IC50,BSEP [3],12 to 76.8 µM
